Measurements reported in patent publication US12077503B2, “Substituted cyclic amides and their use as herbicides” (FMC CORPORATION, priority 2015, dated 2024).

Experiments:
Format in all cases: in vivo
[1] = system: barnyardgrass (Echinochloa crus-galli); test: Test C flooded paddy test; settings: Flood; for Plant response rating (scale of 0 to 100), Barnyardgrass: 0 is no effect, 100 is complete control
Outline: (§1)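 Plants grown to the 2-leaf stage in pots flooded to 3 cm above soil; compounds applied directly into the paddy water, depth held throughout. After 13 to 15 d in greenhouse, injury visually rated against untreated controls on a 0–100 scale (0 no effect, 100 complete control).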

[2] = system: ducksalad (Heteranthera limosa); test: Test C flooded paddy test; settings: Flood; for Plant response rating (scale of 0 to 100), Ducksalad: 0 is no effect, 100 is complete control
Outline: as §1

[3] = system: rice (Oryza sativa); test: Test C flooded paddy test; settings: Flood; for Plant response rating (scale of 0 to 100), Rice: 0 is no effect, 100 is complete control
Outline: as §1

[4] = system: Monochoria (Monochoria vaginalis); test: Test F flooded paddy test; parameters: key: 0 = no effect, 100 = complete control; settings: Flood
[5] = system: water seeded rice seedlings (Rice, W. S. Jap, Oryza sativa cv. ‘Japonica—M202’); test: Test F flooded paddy test; parameters: key: 0 = no effect, 100 = complete control; settings: Flood
[6] = system: redstem (purple redstem, Ammannia coccinea); test: Test F flooded paddy test; settings: Flood
Description: (§2) Plant species in the flooded paddy test consisted of one stand of 9 or 10 water seeded rice seedlings (Rice, W. S. Jap, Oryza sativa cv. ‘Japonica—M202’ or Rice, W. S. Ind, ‘Indica’), and two stands of 3 or 4 transplanted rice seedlings (Oryza sativa cv. ‘Japonica—M202’), Monochoria (Monochoria vaginalis), sedge, umbrella (small-flower umbrella sedge, Cyperus difformis), hardstem bulrush (Scirpus juncoides), redstem (purple redstem, Ammannia coccinea), rice flatsedge (Cyperus iria), bearded sprangletop (Leptochloa fascicularis), barnyardgrass (Echinochloa crus-galli), waterplantain (common waterplantain, Alisma plantago-aquatica), and late watergrass (Echinochloa oryzicola) grown to the 2 to 2.5 leaf stage for testing. Potted plants were grown in a greenhouse with day/night temperature settings of 30/27° C., and supplemental balanced lighting was provided to maintain a 16-hour photoperiod. At time of treatment, test pots were flooded to 3 cm above the soil surface, treated by application of test compounds directly to the paddy water, and then maintained at that water depth for the duration of the test. Effects of treatments on rice and weeds were visually evaluated by comparison to untreated controls after 21 d. Plant response ratings, summarized in Table F, are based on a scale of 0 to 100 where 0 is no effect and 100 is complete control. A dash (-) response means no test result.

[7] = system: waterplantain (common waterplantain, Alisma plantago-aquatica); test: Test F flooded paddy test; settings: Flood
Description: as §2

[8] = 16 g ai/ha, scale 0 to 100 (0 no effect, 100 complete control), 13 to 15 d

SMILES: Cc1ccc(C2CN(C)C(=O)C2C(=O)Nc2ccccc2F)cc1F (stereo not shown) [Compound 465]
- Plant response rating, Barnyardgrass [1, 8]: 0
- Plant response rating (scale of 0 to 100), Barnyardgrass ([1]; 31 g ai/ha): 25
- Plant response rating (scale of 0 to 100), Barnyardgrass ([1]; 62 g ai/ha): 45
- Plant response rating (scale of 0 to 100), Barnyardgrass ([1]; 125 g ai/ha): 70
- Plant response rating, Ducksalad [2, 8]: 0
- Plant response rating (scale of 0 to 100), Ducksalad ([2]; 31 g ai/ha): 45
- Plant response rating (scale of 0 to 100), Ducksalad ([2]; 62 g ai/ha): 65
- Plant response rating (scale of 0 to 100), Ducksalad ([2]; 125 g ai/ha): 90
- Plant response rating, Rice [3, 8]: 0
- Plant response rating (scale of 0 to 100), Rice ([3]; 31 g ai/ha): 0
- Plant response rating (scale of 0 to 100), Rice ([3]; 62 g ai/ha): 0
- Plant response rating (scale of 0 to 100), Rice ([3]; 125 g ai/ha): 0
- Plant response rating: Monochoria ([4]; 32 g ai/ha): 50
- Plant response rating: Monochoria ([4]; 64 g ai/ha): 75
- Plant response rating: Monochoria ([4]; 125 g ai/ha): 100
- Plant response rating: Monochoria ([4]; 250 g ai/ha): 100
- Plant response rating: Rice, Water Seeded ([5]; 32 g ai/ha): 0
- Plant response rating: Rice, Water Seed. ([5]; 64 g ai/ha): 0
- Plant response rating: Rice, Water Seed. ([5]; 125 g ai/ha): 35
- Plant response rating: Rice, Water Seeded ([5]; 250 g ai/ha): 60
- Plant response rating: Redstem ([6]; 32 g ai/ha): 0
- Plant response rating: Redstem ([6]; 64 g ai/ha): 0
- Plant response rating: Redstem ([6]; 125 g ai/ha): 0
- Plant response rating: Redstem ([6]; 250 g ai/ha): 45
- Plant response rating: Waterplantain ([7]; 32 g ai/ha): 0
- Plant response rating: Waterplantain ([7]; 64 g ai/ha): 40
- Plant response rating: Waterplantain ([7]; 125 g ai/ha): 90
- Plant response rating: Waterplantain ([7]; 250 g ai/ha): 100
